Measured values reported in US20230278972A1, “SUBSTITUTED HALOALKYL SULFONANILIDE HERBICIDES” (FMC Corporation, priority 2020, published 2023).

Tests used:
Assay type in all cases: in vivo
[1] = test system: galium (catchweed bedstraw, Galium aparine); test: Test A postemergence, galium; settings: Postemergence; for Galium plant response rating: 500 g ai/ha, visual injury vs untreated controls after approx. 10 days
Outline: (§1)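 Formulated with a surfactant in a non-phytotoxic solvent, compounds are applied to loam–sand pots, either to bare soil immediately after seeding (preemergence) or to seedlings of 2 to 10 cm bearing one to two leaves (postemergence).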

[2] = test system: Foxtail, Giant (giant foxtail, Setaria faberi); test: Test A postemergence, Foxtail, Giant; settings: Postemergence; for Foxtail, Giant plant response rating: 500 g ai/ha, visual injury vs untreated controls after approx. 10 days
Outline: (§2)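 Seeds are sown in loam mixed with sand and sprayed on the soil surface right after planting for the preemergence test. Postemergence pots are sprayed once seedlings reach 2 to 10 cm at the one- to two-leaf stage. The same surfactant-containing, non-phytotoxic solvent formulation serves both.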

[3] = test system: barnyardgrass (Echinochloa crus-galli); test: Test A postemergence, barnyardgrass; settings: Postemergence, 0 to 100 scale (0 no effect, 100 complete control); for Barnyardgrass plant response rating: 500 g ai/ha, visual injury vs untreated controls after approx. 10 days
Outline: as §1

[4] = test system: kochia (Bassia scoparia); test: Test A postemergence, kochia; settings: Postemergence; for Kochia plant response rating: 500 g ai/ha, visual injury vs untreated controls after approx. 10 days
Outline: as §2

[5] = test system: corn (Zea mays); test: Test A postemergence, corn; settings: Postemergence; for Corn plant response rating: 500 g ai/ha, visual injury vs untreated controls after approx. 10 days
Outline: as §2

[6] = test system: kochia (Bassia scoparia); test: Test A preemergence, kochia; settings: Preemergence; for Kochia plant response rating: 125 g ai/ha, visual injury on 0 to 100 scale (0 no effect, 100 complete control), approximately 10 days; for Plant response rating, Kochia: 0 to 100 scale (0 no effect, 100 complete control)
Outline: as §2

[7] = test system: Ryegrass, Italian (Italian ryegrass, Lolium multiflorum); test: Test A preemergence, Ryegrass, Italian; settings: Preemergence; for Ryegrass, Italian plant response rating: 125 g ai/ha, visual injury on 0 to 100 scale (0 no effect, 100 complete control), approximately 10 days; for Plant response rating, Ryegrass, Italian: 0 to 100 scale (0 no effect, 100 complete control)
Outline: as §2

[8] = test system: barnyardgrass (Echinochloa crus-galli); test: Test A preemergence, barnyardgrass; settings: Preemergence; for Barnyardgrass plant response rating: 125 g ai/ha, visual injury on 0 to 100 scale (0 no effect, 100 complete control), approximately 10 days; for Plant response rating, Barnyardgrass: 0 to 100 scale (0 no effect, 100 complete control)
Outline: as §2

[9] = test system: pigweed (Amaranthus retroflexus); test: Test A preemergence, pigweed; settings: for Pigweed plant response rating: 125 g ai/ha, visual injury on 0 to 100 scale (0 no effect, 100 complete control), approximately 10 days; for Plant response rating, Pigweed: 0 to 100 scale (0 no effect, 100 complete control)
Outline: as §1

[10] = test system: Foxtail, Giant (giant foxtail, Setaria faberi); test: Test A preemergence, Foxtail, Giant; settings: Preemergence; for Foxtail, Giant plant response rating: 125 g ai/ha, visual injury on 0 to 100 scale (0 no effect, 100 complete control), approximately 10 days; for Plant response rating, Foxtail, Giant: 0 to 100 scale (0 no effect, 100 complete control)
Outline: as §2

[11] = test system: wheat (Triticum aestivum); test: Test A postemergence, wheat; settings: Postemergence; for Wheat plant response rating: 500 g ai/ha, visual injury vs untreated controls after approx. 10 days
Outline: as §1

[12] = test system: blackgrass (Alopecurus myosuroides); test: Test A postemergence, blackgrass; settings: Postemergence, 0 to 100 scale (0 no effect, 100 complete control); for Blackgrass plant response rating: 500 g ai/ha, visual injury vs untreated controls after approx. 10 days
Outline: as §2

[13] = test system: ragweed (common ragweed, Ambrosia artemisiifolia); test: Test A postemergence, ragweed; settings: Postemergence; for Ragweed plant response rating: 500 g ai/ha, visual injury vs untreated controls after approx. 10 days
Outline: as §2

[14] = test system: Ryegrass, Italian (Italian ryegrass, Lolium multiflorum); test: Test A postemergence, Ryegrass, Italian; settings: Postemergence; for Ryegrass, Italian plant response rating: 500 g ai/ha, visual injury vs untreated controls after approx. 10 days
Outline: as §2

[15] = test system: pigweed (Amaranthus retroflexus); test: Test A postemergence, pigweed; settings: Postemergence; for Pigweed plant response rating: 500 g ai/ha, visual injury vs untreated controls after approx. 10 days
Outline: as §2

[16] = test system: ragweed (common ragweed, Ambrosia artemisiifolia); test: Test A preemergence, ragweed; settings: Preemergence; for Ragweed plant response rating: 125 g ai/ha, visual injury on 0 to 100 scale (0 no effect, 100 complete control), approximately 10 days; for Plant response rating, Ragweed: 0 to 100 scale (0 no effect, 100 complete control)
Outline: as §2

[17] = 125 g ai/ha, visual injury approx. 10 days, 0 to 100 scale (0 no effect, 100 complete control)
[18] = 0 to 100 scale (0 no effect, 100 complete control)
[19] = 125 g ai/ha, visual injury approx. 10 days
[20] = 125 g ai/ha, 0 to 100 scale (0 no effect, 100 complete control)
[21] = 31 g ai/ha, visual injury on 0 to 100 scale (0 no effect, 100 complete control), approx. 10 days
[22] = 31 g ai/ha, visual injury, approx. 10 days

| SMILES | Plant response rating, Galium [1, 17] | Galium plant response rating [1, 18] | Plant response rating, Foxtail, Giant [2, 17] | Foxtail, Giant plant response rating [2, 18] | Plant response rating, Barnyardgrass [3, 19] | Barnyardgrass plant response rating [3] | Plant response rating, Kochia [4, 17] | Kochia plant response rating [4, 18] | Plant response rating, Corn [5, 17] | Kochia plant response rating [6] | Ryegrass, Italian plant response rating [7] | Barnyardgrass plant response rating [8] | Pigweed plant response rating [9] | Foxtail, Giant plant response rating [10] | Plant response rating, Wheat [11, 20] | Plant response rating, Blackgrass [12, 19] | Plant response rating, Ragweed [13, 20] | Plant response rating, Ryegrass, Italian [14, 20] | Plant response rating, Pigweed [15, 20] | Ragweed plant response rating [16] | further results |
| --- | --- | --- | --- | --- | --- | --- | --- | --- | --- | --- | --- | --- | --- | --- | --- | --- | --- | --- | --- | --- | --- |
| Cc1cc(C)c(C2=NOC3(CCC4(CC3)OCCO4)C2)cc1NS(=O)(=O)C(F)(F)F [Compound 135] | 90 | 90 | 90 | 90 | 80 | 90 | 50 | 70 | 0 | 80 | 100 | 100 | 60 | 100 | 0 | 20 | 20 | 0 | 80 | 10 | Corn plant response rating [5, 18]: 80; Plant response rating, Kochia ([6]; 500 g ai/ha): 100; Plant response rating, Ryegrass, Italian ([7]; 500 g ai/ha): 100; Plant response rating, Barnyardgrass ([8]; 500 g ai/ha): 100; Plant response rating, Pigweed ([9]; 500 g ai/ha): 100; Plant response rating, Foxtail, Giant ([10]; 500 g ai/ha): 100; Wheat plant response rating [11, 18]: 70; Blackgrass plant response rating [12]: 60; Ragweed plant response rating [13, 18]: 80; Ryegrass, Italian plant response rating [14, 18]: 80; Pigweed plant response rating [15, 18]: 70; Plant response rating, Ragweed ([16]; 500 g ai/ha): 80 |
| Cc1cc(C)c(N(S(=O)(=O)C(F)(F)F)S(=O)(=O)C(F)(F)F)cc1C1=NOC2(CCC3(CC2)OCCO3)C1 [Compound 136] | 70 | 90 | 0 | 50 | 20 | 80 | 30 | 40 | 0 | 80 | 90 | 90 | 20 | 100 | 70 | 10 | 60 | 80 | 40 | 50 | Corn plant response rating [5, 18]: 30; Plant response rating, Kochia ([6]; 500 g ai/ha): 90; Plant response rating, Ryegrass, Italian ([7]; 500 g ai/ha): 100; Plant response rating, Barnyardgrass ([8]; 500 g ai/ha): 100; Plant response rating, Pigweed ([9]; 500 g ai/ha): 70; Plant response rating, Foxtail, Giant ([10]; 500 g ai/ha): 100; Wheat plant response rating [11, 18]: 60; Blackgrass plant response rating [12]: 20; Ragweed plant response rating [13, 18]: 50; Ryegrass, Italian plant response rating [14, 18]: 0; Pigweed plant response rating [15, 18]: 90; Plant response rating, Ragweed ([16]; 500 g ai/ha): 80 |
| COC1CCCN(C(=O)c2cc(NS(=O)(=O)C(F)(F)F)c(C)cc2C)CC1 (stereo not drawn) [Compound 137] | 80 |  | 0 |  | 30 |  | 20 |  | 30 | 30 | 100 | 100 | 100 | 100 | 0 | 0 | 10 | 0 | 30 | 60 | Plant response rating, Galium [1, 21]: 30; Plant response rating, Foxtail, Giant [2, 21]: 0; Plant response rating, Barnyardgrass ([3]; 31 g ai/ha): 10; Plant response rating, Kochia [4, 21]: 0; Plant response rating, Corn [5, 21]: 30; Plant response rating, Kochia [6, 22]: 30; Plant response rating, Ryegrass, Italian [7, 22]: 60; Plant response rating, Barnyardgrass [8, 22]: 20; Plant response rating, Pigweed [9, 22]: 80; Plant response rating, Foxtail, Giant [10, 22]: 50; Plant response rating, Wheat [11, 21]: 0; Plant response rating, Blackgrass ([12]; 31 g ai/ha): 0; Plant response rating, Ragweed [13, 21]: 0; Plant response rating, Ryegrass, Italian [14, 21]: 0; Plant response rating, Pigweed [15, 21]: 50; Plant response rating, Ragweed [16, 22]: 20 |
| Cc1cc(C)c(N(S(=O)(=O)C(F)(F)F)S(=O)(=O)C(F)(F)F)cc1C1=NOC2(CCC(C)(C)CC2)C1 [Compound 139] | 50 | 80 | 0 | 0 | 0 | 0 | 0 | 50 | 0 | 0 | 50 | 0 | 20 | 0 | 0 | 0 | 0 | 0 | 40 | 0 | Corn plant response rating [5, 18]: 0; Plant response rating, Kochia ([6]; 500 g ai/ha): 60; Plant response rating, Ryegrass, Italian ([7]; 500 g ai/ha): 70; Plant response rating, Barnyardgrass ([8]; 500 g ai/ha): 30; Plant response rating, Pigweed ([9]; 500 g ai/ha): 70; Plant response rating, Foxtail, Giant ([10]; 500 g ai/ha): 20; Wheat plant response rating [11, 18]: 0; Blackgrass plant response rating [12]: 0; Ragweed plant response rating [13, 18]: 0; Ryegrass, Italian plant response rating [14, 18]: 0; Pigweed plant response rating [15, 18]: 80; Plant response rating, Ragweed ([16]; 500 g ai/ha): 30 |
| CCCCC(=O)OCN(c1cc(C2=NOC3(CCCC3)C2)c(C)cc1C)S(=O)(=O)C(F)(F)F [Compound 143] | 40 |  | 30 |  | 50 |  | 20 |  | 20 | 20 | 90 | 90 | 100 | 100 | 50 | 0 | 10 | 20 | 40 | 0 | Plant response rating, Galium [1, 21]: 50; Plant response rating, Foxtail, Giant [2, 21]: 0; Plant response rating, Barnyardgrass ([3]; 31 g ai/ha): 0; Plant response rating, Kochia [4, 21]: 10; Plant response rating, Corn [5, 21]: 0; Plant response rating, Kochia [6, 22]: 0; Plant response rating, Ryegrass, Italian [7, 22]: 90; Plant response rating, Barnyardgrass [8, 22]: 80; Plant response rating, Pigweed [9, 22]: 60; Plant response rating, Foxtail, Giant [10, 22]: 50; Plant response rating, Wheat [11, 21]: 20; Plant response rating, Blackgrass ([12]; 31 g ai/ha): 60; Plant response rating, Ragweed [13, 21]: 0; Plant response rating, Ryegrass, Italian [14, 21]: 0; Plant response rating, Pigweed [15, 21]: 20; Plant response rating, Ragweed [16, 22]: 0 |
| CCC(=O)OCN(c1cc(C2=NOC3(CCCC3)C2)c(C)cc1C)S(=O)(=O)C(F)(F)F [Compound 144] | 60 |  | 30 |  | 20 |  | 10 |  | 30 | 30 | 90 | 100 | 50 | 100 | 60 | 0 | 30 | 0 | 40 | 30 | Plant response rating, Galium [1, 21]: 30; Plant response rating, Foxtail, Giant [2, 21]: 0; Plant response rating, Barnyardgrass ([3]; 31 g ai/ha): 0; Plant response rating, Kochia [4, 21]: 10; Plant response rating, Corn [5, 21]: 0; Plant response rating, Kochia [6, 22]: 0; Plant response rating, Ryegrass, Italian [7, 22]: 70; Plant response rating, Barnyardgrass [8, 22]: 20; Plant response rating, Pigweed [9, 22]: 70; Plant response rating, Foxtail, Giant [10, 22]: 90; Plant response rating, Wheat [11, 21]: 0; Plant response rating, Blackgrass ([12]; 31 g ai/ha): 0; Plant response rating, Ragweed [13, 21]: 0; Plant response rating, Ryegrass, Italian [14, 21]: 0; Plant response rating, Pigweed [15, 21]: 20; Plant response rating, Ragweed [16, 22]: 0 |
